Test results reported in ChEMBL document CHEMBL1149083, “CoMFA and CoMSIA 3D-QSAR studies on S(6)-(4-nitrobenzyl)mercaptopurine riboside (NBMPR) analogs as inhibitors of human equilibrative nucleoside transporter 1 (hENT1)” (Bioorg Med Chem Lett, 2009).
pKi: −log10 of the molar value.

Molecular target: T1, Equilibrative nucleoside transporter 1 (Homo sapiens, UniProt Q99808)
T1 sequence (Q99808 whole entry): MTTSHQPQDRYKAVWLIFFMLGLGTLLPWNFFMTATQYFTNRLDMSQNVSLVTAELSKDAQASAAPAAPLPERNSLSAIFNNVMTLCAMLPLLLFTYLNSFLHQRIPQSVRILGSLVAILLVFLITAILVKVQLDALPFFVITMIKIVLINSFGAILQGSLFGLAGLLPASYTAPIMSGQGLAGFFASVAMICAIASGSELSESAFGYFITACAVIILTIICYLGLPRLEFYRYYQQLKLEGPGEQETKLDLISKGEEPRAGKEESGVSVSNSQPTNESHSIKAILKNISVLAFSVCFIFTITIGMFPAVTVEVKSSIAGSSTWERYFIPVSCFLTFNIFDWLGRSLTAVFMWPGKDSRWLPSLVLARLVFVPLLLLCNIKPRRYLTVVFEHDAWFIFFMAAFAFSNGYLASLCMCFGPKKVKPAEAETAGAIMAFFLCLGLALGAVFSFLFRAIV
Experiment: Inhibition of human ENT1

Row | SMILES | pKi
1 | Cc1cc(C)c(CSc2ncnc3c2ncn3[C@@H]2O[C@H](CO)[C@@H](O)[C@H]2O)c(C)c1 | 5.72
2 | OC[C@H]1O[C@@H](n2cnc3c(SCc4ccc(Cl)cc4)ncnc32)[C@H](O)[C@@H]1O | 7.83
3 | Cc1cccc(CSc2ncnc3c2ncn3[C@@H]2O[C@H](CO)[C@@H](O)[C@H]2O)c1 | 7.79
4 | COC(=O)c1ccc(CSc2ncnc3c2ncn3[C@@H]2O[C@H](CO)[C@@H](O)[C@H]2O)cc1 | 7.33
5 | OC[C@H]1O[C@@H](n2cnc3c(SCc4ccc(OC(F)(F)F)cc4)ncnc32)[C@H](O)[C@@H]1O | 8.15
6 | OC[C@H]1O[C@@H](n2cnc3c(SCc4c(F)cccc4Cl)ncnc32)[C@H](O)[C@@H]1O | 7.06
7 | N#Cc1ccccc1CSc1ncnc2c1ncn2[C@@H]1O[C@H](CO)[C@@H](O)[C@H]1O | 7.41
8 | OC[C@H]1O[C@@H](n2cnc3c(SCc4cccc(C(F)(F)F)c4)ncnc32)[C@H](O)[C@@H]1O | 7.72
9 | OC[C@H]1O[C@@H](n2cnc3c(SCc4ccccc4F)ncnc32)[C@H](O)[C@@H]1O | 7.62
10 | OC[C@H]1O[C@@H](n2cnc3c(SCc4ccc(I)cc4)ncnc32)[C@H](O)[C@@H]1O | 8.42
11 | OC[C@H]1O[C@@H](n2cnc3c(SCc4ccc(Cl)c(Cl)c4)ncnc32)[C@H](O)[C@@H]1O | 7.90
12 | OC[C@H]1O[C@@H](n2cnc3c(SCc4cccc(Br)c4)ncnc32)[C@H](O)[C@@H]1O | 7.68
13 | Cc1ccccc1CSc1ncnc2c1ncn2[C@@H]1O[C@H](CO)[C@@H](O)[C@H]1O | 7.17
14 | OC[C@H]1O[C@@H](n2cnc3c(SCc4ccc(Br)cc4)ncnc32)[C@H](O)[C@@H]1O | 7.94
15 | COc1ccc(CSc2ncnc3c2ncn3[C@@H]2O[C@H](CO)[C@@H](O)[C@H]2O)cc1 | 7.46
16 | N#Cc1cccc(CSc2ncnc3c2ncn3[C@@H]2O[C@H](CO)[C@@H](O)[C@H]2O)c1 | 7.44
17 | N#Cc1ccc(CSc2ncnc3c2ncn3[C@@H]2O[C@H](CO)[C@@H](O)[C@H]2O)cc1 | 8.34
18 | OC[C@H]1O[C@@H](n2cnc3c(SCc4ccccc4)ncnc32)[C@H](O)[C@@H]1O [6-BENZYLTHIOINOSINE] | 7.70
19 | OC[C@H]1O[C@@H](n2cnc3c(SCc4cccc(F)c4)ncnc32)[C@H](O)[C@@H]1O | 7.89
20 | O=[N+]([O-])c1ccccc1CSc1ncnc2c1ncn2[C@@H]1O[C@H](CO)[C@@H](O)[C@H]1O | 6.94
21 | OC[C@H]1O[C@@H](n2cnc3c(SCc4ccccc4Cl)ncnc32)[C@H](O)[C@@H]1O | 6.93
22 | OC[C@H]1O[C@@H](n2cnc3c(SCc4ccc(Cl)cc4Cl)ncnc32)[C@H](O)[C@@H]1O | 8.36
23 | OC[C@H]1O[C@@H](n2cnc3c(SCc4ccccc4I)ncnc32)[C@H](O)[C@@H]1O | 7.71
24 | Cc1ccc(CSc2ncnc3c2ncn3[C@@H]2O[C@H](CO)[C@@H](O)[C@H]2O)cc1 | 7.82
25 | OC[C@H]1O[C@@H](n2cnc3c(SCc4cccc(Cl)c4)ncnc32)[C@H](O)[C@@H]1O | 7.74
26 | O=[N+]([O-])c1cccc(CSc2ncnc3c2ncn3[C@@H]2O[C@H](CO)[C@@H](O)[C@H]2O)c1 | 8.75
27 | CC(C)(C)c1ccc(CSc2ncnc3c2ncn3[C@@H]2O[C@H](CO)[C@@H](O)[C@H]2O)cc1 | 5.00
28 | OC[C@H]1O[C@@H](n2cnc3c(SCc4ccccc4Br)ncnc32)[C@H](O)[C@@H]1O | 6.82
